This note sets out measurements from patent US5550243A, “B preparation of 2- and 3- azido derivates of 1,5-iminosugars” (priority 1995, dated 1996).

The test system of assay [1] is visna virus. Briefly: microbe, parasite or virus in culture. The settings on record: for inhibition at 100 µM / inhibition at 1000 µM: Visna-maedi virus. Type of assay: cell-based.
Assay [2] relates to β-glucosidase. The assay can be described thus: Inhibition of β-glucosidase in conventional enzyme assay. Type of assay: biochemical. The settings on record: 1 mM concentration.
In assay [3] the test system is α-glucosidase. The assay can be described thus: Inhibition of α-glucosidase in conventional enzyme assay. The format is biochemical. The settings on record: 1 mM concentration.
Setting [4] is: read-out: Visna % Plaque Redn (Conc).
[5] abbreviates: read-out: Visna % Plague Redn (Conc).

Structures are written as SMILES. Where two headings read alike, the source gives them in different places.

Regarding `[N-]=[N+]=N[C@H]1CN[C@H](CO)[C@@H](O)[C@@H]1O` [Compound 12, 2-azido-1,2,5-trideoxy-1,5-imino-D-glucitol], the inhibition at 100 µM in assay [1] (setting [4]) was 76%.

`CCCCN1CC(N=[N+]=[N-])C(O)C(O)C1CO` [Compound 13, 2-azido-1,5-(butylimino)-1,2,5-trideoxy-D-glucitol]: the inhibition at 100 µM in assay [1] (setting [5]) and in assay [1] (setting [4]) was 78% each time.

Regarding `CCC(CC)CN1CC(N=[N+]=[N-])C(O)C(O)C1CO` [Compound 14, 2-azido-1,5-{(2-ethylbutyl)imino}-1,2,5-trideoxy-D-glucitol], the inhibition at 100 µM in assay [1] (setting [4]) came out at 67%.

Regarding `[N-]=[N+]=NC1CN(CCCC(F)(F)F)C(CO)C(O)C1O` [Compound 15, 2-azido-1,5-{(4,4,4-trifluorobutyl)imino}-1,2,5-trideoxy-D-glucitol], in assay [1] (setting [4]), the inhibition at 1000 µM amounted to 41%.

For `N[C@H]1CN[C@H](CO)[C@@H](O)[C@@H]1O` [Compound 20, 2-amino-1,2,5-trideoxy-1,5-imino-D-glucitol], the inhibition at 100 µM in assay [1] (setting [4]) came out at 91%.

Turning to `CCCCN1CC(N)C(O)C(O)C1CO` [Compound 21, 2-amino-1,5-(butylimino)-1,2,5-trideoxy-D-glucitol], the inhibition at 100 µM in assay [1] (setting [5]) and in assay [1] (setting [4]) was 66% in each case.

For `CCC(CC)CN1CC(N)C(O)C(O)C1CO` [Compound 22, 2-amino-1,5-{(2-ethylbutyl)imino}-1,2,5-trideoxy-D-glucitol], the “Visna % Plaque Redn (Conc), only a concentration bound printed” value in assay [1] (Table 3, no % printed) is above 1 mm.

`NC1CN(CCCC(F)(F)F)C(CO)C(O)C1O` [Compound 23, 2-amino-1,5-{(4,4,4-trifluorobutyl)imino}-1,2,5-trideoxy-D-glucitol]: in assay [1] (setting [4]), the inhibition at 1000 µM was determined as 9%.

With `CCCCN1CC(N(C)C)C(O)C(O)C1CO` [Compound 28, 1,5-(butylimino)-1,2,5-trideoxy-2-(dimethylamino)-D-glucitol], the inhibition at 100 µM in assay [1] (setting [5]) turned out to be 41%.

On to `CCCCN1CC(NC)C(O)C(O)C1CO` [Compound 29, 1,5-(butylimino)-1,2,5-trideoxy-2-(methylamino)-D-glucitol], for which, in assay [1] (setting [5]), the inhibition at 100 µM was found to be 25%.

Take `CCCCN1CC(NC(=O)CCC)C(O)C(O)C1CO` [Compound 30, 1,5-(butylimino)-1,2,5-trideoxy-2-{(1-oxobutyl)amino}-D-glucitol]: the inhibition at 100 µM in assay [1] (setting [5]) came out at 20%.

With `CCCCN1CC(NC(=O)CCC)C(OC(=O)CCC)C(OC(=O)CCC)C1COC(=O)CCC` [Compound 31, 1,5-(butylimino)-1,2,5-trideoxy-2-{(1-oxobutyl)amino}-D-glucitol, tributanoate], in assay [1] (setting [5]), the inhibition at 100 µM was 29%.

For `N[C@H]1[C@H](O)[C@@H](CO)NC[C@@H]1O` [Compound 37, 3-amino-1,3,5-trideoxy-1,5-imino-D-glucitol], the inhibition at 1000 µM in assay [1] (setting [4]) came out at 30%.

On to `CCCCN1CC(N)C(N)C(O)C1CO` [Compound 46, 2,3-diamino-1,5-(butylimino)-1,2,3,5-tetradeoxy-D-glucitol], for which the inhibition at 1000 µM in assay [1] (setting [4]) worked out at 3%.

As to `CN(C)CCN[C@@H]1[C@H](O)[C@@H](CO)NC[C@H]1O` [Compound 50, 3-[{2-(dimethylamino)ethyl}amino]-1,3,5-trideoxy-1,5-imino-D-altritol], in assay [1] (setting [4]), the inhibition at 1000 µM turned out to be 38%. In assay [2], the “inhibition of β-glucosidase” value is listed as 22%. In assay [3], the “inhibition of α-glucosidase” value amounted to 22%.
